In patent US20250206779A1, “ANGIOTENSIN-(1-9) ANALOGUE BASED ON D AMINO ACIDS, PHARMACEUTICAL COMPOSITIONS AND USES THEREOF” (UNIVERSIDAD DE CHILE, priority 2021, published 2025):
Where a SMILES comes first, the peptide text is derived from it. [ ]: non-standard residue; d: D form.

Experiments:
[1] = system: neonatal rat ventricular myocytes (NRVM); experiment: Cardiomyocyte death by simulated ischemia/reperfusion (LDH release, procaspase 3 cleavage); format: cell-based
Experimental: Neonatal rat ventricular myocytes (NRVM) were isolated from one- to three-day-old Sprague Dawley rats. Cells were pre-plated to discard non-myocyte cells and the myocyte-enriched fraction was plated on gelatin-precoated 35 mm dishes and grown in DMEM/M199 (4:1) medium with 10% (w/v) fetal bovine serum (FBS) and […] bromodeoxyuridine for 24 h before the experiments. Ischemia was induced by incubating the cardiomyocytes in ischemia-mimicking solution (ischemic medium) containing HEPES 5 mM, 2-deoxy-D-glucose 10 mM, NaCl 139 mM, KCl 12 mM, MgCl2 0.5 mM, CaCl2 1.3 mM and lactic acid 20 mM, pH 6.2, under O2<1%, 5% CO2 and 95% nitrogen at 37° C. for 8 h. Subsequently for simulated reperfusion, ischemia-mimicking solution was replaced by DMEM/M199 (4:1) containing 10% (w/v) FBS and NRVM were incubated for 16 h in 95% air and 5% CO2. Parallel NRVM were assigned to a control group which was exposed to normoxic conditions in a control medium containing (in mM) 5 HEPES 5 mM, D-glucose 23 mM, NaCl 139 mM, KCl 4.7 mM, MgCl2 0.5 mM, CaCl2 1.3 mM, pH 7.4 under 95% air and 5% CO2 for 8 h. Then, control medium was replaced with DMEM/M199 (4:1) containing 10% (w/v) FBS under 95% air and 5% CO2 for 16 h.
For the evaluation of necrosis, the activity of lactate dehydrogenase (LDH) was measured spectrophotometrically at 490 nm in samples of the culture medium after normoxia (control) and sl/R both at 8 h and 16 h, using the kit CytoTox 96® Non-Radioactive Cytotoxicity Assay, Promega (Corp., Madison, WI, USA), according to the manufacturer's instructions. Apoptosis was evaluated by measuring procaspase 3 cleavage to caspase 3 by western blotting.

cardiomyocytes = experiment: Norepinephrine-induced cardiomyocyte hypertrophy, cell area and perimeter; format: cell-based, rat; conditions: 100 μM peptide, norepinephrine 10 μM
Experimental: Cardiac myocytes were isolated from neonatal Sprague-Dawley rat ventricles. Cardiac myocytes were plated at 70% final density in gelatin-coated wells (12-well plates) or in 60-mm Petri dishes and maintained at 37° C. in a humidified atmosphere of 5% CO2/95% air for 24 h in Dulbecco's Modified Eagle's medium [(DMEM)/M199](4:1) containing 10% fetal bovine serum and 5% fetal calf serum. Serum was withdrawn 24 h before preincubation with 1, 10 or 100 μM retro-inverse angiotensin-(1-9) for 1 h; then, 10 μM norepinephrine (Sigma, St Louis, Missouri, USA) were added and the cultures were incubated for 24 h. […] After centrifugation at 12,000 r.p.m. for 15 min at 4° C., the supernatat was recovered; total protein content was determined by using Bradford (BioRad protein assay, BioRad, Hercules, CA, USA). […]
Cardiomyocyte hypertrophy is characterized by an increase of cell area and perimeter. Cell area and perimeter were analyzed as follows. […] Cell area and perimeter were determined in cells fixed with 4% paraformaldehyde for 10 min and permeabilized with 0.2% Triton X100 for 6 min. […] Cell staining was evaluated by epifluorescence microscopy. At least 100 cells from randomly selected fields were analyzed using Image J software (NIH). […]

[2] = system: isolated hearts from adult male Sprague-Dawley rats; experiment: Infarct size in isolated hearts subjected to ischemia/reperfusion (Langendorff, TTC staining); parameters: species or system rat; conditions: 50 nM peptide in reperfusion, 30 min global ischemia, ex vivo
Experimental: The cardioprotective effects of retro-inverse angiotensin-(1-9) were also investigated in isolated hearts from adult male Sprague-Dawley rats (250-300 g) subjected to ischemia/reperfusion (I/R) using a Langendorff procedure. Rats were anesthetized with pentobarbital [80 mg/kg intraperitoneally (i.p.)] and heparin 100 U/kg was injected into the right atria. Hearts were rapidly harvested and perfused through the aorta with Krebs-Henseleit solution containing NaCl 128.3 mM, KCl 4.7 mM, CaCl2 1.35 mM, MgSO4 1.1 mM, NaHCO3 20.2 mM, NaH2PO4 0.4 mM and glucose 11.1 mM, pH 7.4 (equilibrated with a gas mixture of 95% O2 and 5% CO2 at 37° C.), using a peristaltic pump (Gilson Miniplus 3, France). A latex balloon connected to a pressure transducer was placed through the left atrium and mitral valve into the left ventricle. The balloon was filled with saline to determine isovolumetric intraventricular pressure. Perfusion flow was 10-14 mL/min. Hearts were placed in a heated chamber and paced at 240-300 beats/min with platinum electrodes, using a Grass stimulator (pulses of 5V, 1 ms). […] The infarct size was determined using 2,3,5-triphenyltetrazolium chloride (TTC) staining. […]

## CC[C@@H](C)[C@@H](NC(=O)[C@@H](Cc1c[nH]cn1)NC(=O)[C@H]1CCCN1C(=O)[C@@H](Cc1ccccc1)NC(=O)[C@H](N)Cc1c[nH]cn1)C(=O)N[C@H](Cc1ccc(O)cc1)C(=O)N[C@@H](C(=O)N[C@H](CCCNC(=N)N)C(=O)N[C@H](CC(=O)O)C(=O)O)C(C)C [retro-inverse angiotensin-(1-9), NH2-^DH^DF^DP^DH^DI^DY^DV^DR^DD-COOH] (H-[dH][dF][dP][dH][dI][dY][dV][dR][dD]-OH)
[1]; 10 μM peptide, western blotting
  cardiomyocyte apoptosis induced by ischemia reperfusion (procaspase 3 cleavage): inhibited
[1]; 1 and 10 μM peptide
  cardiomyocyte necrosis induced by ischemia reperfusion (LDH release): Significative necrosis inhibition
[1]; simulated ischemia 8 h / reperfusion 16 h
  cardiomyocyte necrosis induced by ischemia reperfusion (LDH release): inhibited in a dose response manner
cardiomyocytes
  increase of cell area induced by norepinephrine: inhibited, in a dose response manner
  increase of cell perimeter induced by norepinephrine: inhibited, in a dose response manner
[2]
  decrease of infarct size: around 70%
